Source: ChEMBL document CHEMBL1201862, “PubChem BioAssay data set” (2004)
Values joined by “and” are separate entries in the source; they are usually repeats but may differ in a detail not shown here. Identical values can stand only once.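 In this assay, cells in 96-well plates receive the compound at five concentrations for 48 hours. Endpoints are linearly interpolated between the surrounding concentrations. GI50 marks 50% less growth.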 Active and inactive are the calls of the source. Rule as the data show it: active = GI50 up to about 1.1 µM and inactive = higher.

Columns and labels:
Assay in all cases: DTP human tumour cell line panel, 48 h
[1] = system: HOP-92
[2] = system: SN12C
[3] = system: SK-MEL-2
[4] = system: MOLT-4
[5] = system: KM12
[6] = system: SNB-75
[7] = system: SF-268
[8] = system: A549
[9] = system: U-251
[10] = system: OVCAR-4
[11] = system: OVCAR-5
[12] = system: NCI-H226
[13] = system: UACC-257
[14] = system: 786-0
[15] = system: HT-29
[16] = system: NCI-H460
[17] = system: M14
[18] = system: ACHN

| SMILES | GI50 [1] | GI50 [2] | GI50 [3] | GI50 [4] | GI50 [5] | GI50 [6] | GI50 [7] | GI50 [8] | GI50 [9] | GI50 [10] | GI50 [11] | GI50 [12] | GI50 [13] | GI50 [14] | GI50 [15] | GI50 [16] | GI50 [17] | GI50 [18] |
| --- | --- | --- | --- | --- | --- | --- | --- | --- | --- | --- | --- | --- | --- | --- | --- | --- | --- | --- |
| O=C(CCC(=O)N/N=C/c1ccccc1O)N/N=C/c1ccccc1O | 27.9 µM (inactive) | > 100 µM (inactive) | 17.5 µM (inactive) | > 100 µM (inactive) | > 100 µM (inactive) | 12.9 µM (inactive) | 18.8 µM (inactive) | > 100 µM (inactive) | 32.7 µM (inactive) | > 100 µM (inactive) | > 100 µM (inactive) | > 100 µM (inactive) | > 100 µM (inactive) | > 100 µM (inactive) | > 100 µM (inactive) | – | – | – |
| CCOC(=O)C1(Cc2ccc3ccccc3c2)CCCCCN1 (configuration not stated) | 13.9 µM (inactive) | 29.4 µM (inactive) | – | 4.91 µM (inactive) | – | 2.78 µM (inactive) | 58.5 µM (inactive) | 52.4 µM (inactive) | 47 µM (inactive) | 31.4 µM (inactive) | – | – | – | 17.3 µM (inactive) | 12.6 µM (inactive) | 18.4 µM (inactive) | 20 µM (inactive) | 58.2 µM (inactive) |
| Nc1ccc(C2=N/C(=C\c3cccc(N)c3)C(=O)O2)cc1 | > 100 µM (inactive) | > 100 µM (inactive) | > 100 µM (inactive) | > 100 µM (inactive) | > 100 µM (inactive) | – | > 100 µM (inactive) | > 100 µM (inactive) | > 100 µM (inactive) | > 100 µM (inactive) | > 100 µM (inactive) | – | – | > 100 µM (inactive) | > 100 µM (inactive) | – | > 100 µM (inactive) | > 100 µM (inactive) |
| CC(=O)OC12/C(=N/O)CCCCCC1c1ccccc12 (configuration not stated) | – | > 100 µM (inactive) | > 100 µM (inactive) | 25.4 µM (inactive) | > 100 µM (inactive) | 42.8 µM (inactive) | > 100 µM (inactive) | > 100 µM (inactive) | > 100 µM (inactive) | 60.8 µM (inactive) | – | > 100 µM (inactive) | 74.8 µM (inactive) | > 100 µM (inactive) | > 100 µM (inactive) | > 100 µM (inactive) | – | 95.3 µM (inactive) |
| N#C/C(=C\c1ccc(O)cc1)C(N)=O | > 100 µM (inactive) | > 100 µM (inactive) | > 100 µM (inactive) | > 100 µM (inactive) | > 100 µM (inactive) and > 74.6 µM (inactive) | – | > 100 µM (inactive) | > 100 µM (inactive) | > 100 µM (inactive) | > 100 µM (inactive) | > 100 µM (inactive) | > 100 µM (inactive) and 69.7 µM (inactive) | > 100 µM (inactive) | > 100 µM (inactive) | > 100 µM (inactive) | > 100 µM (inactive) | > 100 µM (inactive) | > 100 µM (inactive) |
| Oc1cc(O)c2c(-c3c(O)c(-c4ccc(O)c(O)c4)[o+]c4cc(O)cc(O)c34)c(O)c(-c3ccc(O)c(O)c3)[o+]c2c1 | 36.7 µM (inactive) | 39.9 µM (inactive) | – | 30.5 µM (inactive) | 35.1 µM (inactive) | 24 µM (inactive) | 40.3 µM (inactive) | 48.2 µM (inactive) | 30.9 µM (inactive) | 27.5 µM (inactive) | > 100 µM (inactive) | 20.1 µM (inactive) | > 100 µM (inactive) | 35.5 µM (inactive) | 37.6 µM (inactive) | 21.5 µM (inactive) | 55.5 µM (inactive) | 21.7 µM (inactive) |
| CN(C)CCNC(=O)c1cccc2cc3c(Cl)cccc3nc12 | 2.07 µM (inactive) | 1.07 µM (active) | 1.75 µM (inactive) | 0.22 µM (active) | 1.31 µM (inactive) | 1.97 µM (inactive) | – | 0.556 µM (active) | 1.24 µM (inactive) | 2.02 µM (inactive) | 2.61 µM (inactive) | 1.15 µM (inactive) | 1.75 µM (inactive) | 1.12 µM (active) | 0.889 µM (active) | – | 2.12 µM (inactive) | 0.413 µM (active) |
